Measurements published in ChEMBL document CHEMBL1153245, “A profile of the in vitro anti-tumor activity of imidazolium-based ionic liquids” (2010).

Legend:
Type in all cases: functional
RXF 393 = assay: Anticancer activity against human RXF393 cells assessed cell growth at 10 uM after 48 hrs by sulforhodamine B assay relative to control
NCI-H460 = assay: Anticancer activity against human NCI-H460 cells assessed cell growth at 10 uM after 48 hrs by sulforhodamine B assay relative to control
OVCAR-8 = assay: Anticancer activity against human OVCAR8 cells assessed cell growth at 10 uM after 48 hrs by sulforhodamine B assay relative to control
PC-3 = assay: Anticancer activity against human PC3 cells assessed cell growth at 10 uM after 48 hrs by sulforhodamine B assay relative to control
SNB-19 = assay: Anticancer activity against human SNB19 cells assessed cell growth at 10 uM after 48 hrs by sulforhodamine B assay relative to control
NCI-H322M = assay: Anticancer activity against human NCI-H322M cells assessed cell growth at 10 uM after 48 hrs by sulforhodamine B assay relative to control
A549 = assay: Anticancer activity against human A549 cells assessed cell growth at 10 uM after 48 hrs by sulforhodamine B assay relative to control
MCF7 = assay: Anticancer activity against human MCF7 cells assessed cell growth at 10 uM after 48 hrs by sulforhodamine B assay relative to control
LOX IMVI = assay: Anticancer activity against human LOXIMVI cells assessed cell growth at 10 uM after 48 hrs by sulforhodamine B assay relative to control
UO-31 = assay: Anticancer activity against human UO31 cells assessed cell growth at 10 uM after 48 hrs by sulforhodamine B assay relative to control
IGROV-1 = assay: Anticancer activity against human IGROV1 cells assessed cell growth at 10 uM after 48 hrs by sulforhodamine B assay relative to control
TK-10 = assay: Anticancer activity against human TK10 cells assessed cell growth at 10 uM after 48 hrs by sulforhodamine B assay relative to control
HOP-62 = assay: Anticancer activity against human HOP62 cells assessed cell growth at 10 uM after 48 hrs by sulforhodamine B assay relative to control
MDA-MB-468 = assay: Anticancer activity against human MDA-MB-468 cells assessed cell growth at 10 uM after 48 hrs by sulforhodamine B assay relative to control

SMILES | Activity (RXF 393) | Activity (NCI-H460) | Activity (OVCAR-8) | Activity (PC-3) | Activity (SNB-19) | Activity (NCI-H322M) | Activity (A549) | Activity (MCF7) | Activity (LOX IMVI) | Activity (UO-31) | Activity (IGROV-1) | Activity (TK-10) | Activity (HOP-62) | Activity (MDA-MB-468)
Cn1cc[n+](Cc2ccccc2)c1.F[P-](F)(F)(F)(F)F | 102.92% | 106.8% | 108.71% | 98.08% | 100.88% | 116.31% | 105.33% | 102.21% | 100.88% | 91.78% | 95.43% | 133.23% | 27.45% | 101.43%
CCCCCCCC[n+]1ccn(C)c1.[Cl-] | 78.03% | 101.53% | 77.68% | 97.45% | 91.91% | 95.53% | 85.73% | 79.81% | 71.93% | 85.09% | 96.33% | 77.56% | 90.78% | 46.81%
CCCCCC[n+]1ccn(C)c1.O=S(=O)([N-]S(=O)(=O)C(F)(F)F)C(F)(F)F | 103.51% | 90.77% | 84.83% | 105.34% | 95.37% | 113.78% | 78.86% | 106.75% | 92.45% | 84.29% | 85.47% | 124.14% | 89.75% | 80.22%
CCCCCC[n+]1ccn(C)c1.FC(F)(F)C(F)(F)[P-](F)(F)(F)(C(F)(F)C(F)(F)F)C(F)(F)C(F)(F)F | 92.19% | 51.46% | 60.84% | 86.43% | 82.22% | 77.95% | 56.87% | 62.49% | 59.38% | 71.06% | 78.12% | 67.04% | 88.12% | 39.66%
Cn1cc[n+](CCO)c1.O=S(=O)([N-]S(=O)(=O)C(F)(F)F)C(F)(F)F | 95.99% | 114.83% | 93.89% | 86.93% | 93.36% | 94.56% | 99.55% | 105.11% | 90.65% | 80.89% | 89% | 125.47% | 90.22% | 108.29%
COCC[n+]1ccn(C)c1.O=S(=O)([N-]S(=O)(=O)C(F)(F)F)C(F)(F)F | 103.9% | 108.75% | 96.68% | 78.17% | 93.88% | 102.08% | 101.69% | 101.56% | 92.96% | 71.37% | 77.53% | 123.77% | 93.93% | 106.36%
CCCCCCCC[n+]1ccn(C)c1.F[P-](F)(F)(F)(F)F | 83.22% | 92.86% | 78.96% | 74.78% | 82.83% | 89.47% | 82.75% | 69.15% | 70.03% | 77.77% | 76.25% | 57.87% | 79.02% | 21%
CCCCCCCC[n+]1ccn(C)c1.F[B-](F)(F)F | 104.98% | 98.66% | 73.05% | 83.86% | 81.8% | 101.83% | 89.22% | 76.87% | 72.64% | 76.51% | 85.75% | 76.77% | 91.23% | 39.75%
CCCCCCCCOS(=O)(=O)[O-].CCCCCCCC[n+]1ccn(C)c1 | 84% | 95.98% | 76.03% | 94.3% | 82.22% | 89.12% | 82.78% | 75.57% | 68.86% | 71.08% | 72.84% | 68.07% | 90.54% | 38.15%
